Key:
[1] = test system: Trypanosoma equiperdum; experiment: Trypanocidal activity against Trypanosoma equiperdum IVM-t1 incubated for 72 hrs by CellTiter-Glo reagent based […] analysis; assay type: functional, organism-based; details: IVM-t1, 72 h
[2] = test system: Trypanosoma brucei brucei; experiment: Trypanocidal activity against Trypanosoma brucei brucei GUTat3.1 incubated for 72 hrs by CellTiter-Glo reagent based […] analysis; assay type: functional, organism-based; details: GUTat3.1, 72 h
[3] = test system: Trypanosoma congolense; experiment: Trypanocidal activity against Trypanosoma congolense IL3000 incubated for 72 hrs by CellTiter-Glo reagent based […] analysis; assay type: functional, organism-based; details: IL3000, 72 h
[4] = Selectivity index, ratio of CC50 for MDBK to IC50 for Trypanosoma brucei brucei GUTat3.1; assay type: toxicity, cell-based; details: cattle, MDBK cells; read-out: Ratio CC50/IC50
[5] = Selectivity index, ratio of CC50 for MDBK to IC50 for Trypanosoma evansi Tansui; assay type: toxicity, cell-based; details: cattle, MDBK cells; read-out: Ratio CC50/IC50
[6] = Cytotoxicity against green monkey Vero cells incubated for 48 hrs by resazurin dye based assay; assay type: toxicity, cell-based; details: African green monkey (Chlorocebus sabaeus)
[7] = test system: Leishmania donovani; experiment: Leishmanicidal activity against Leishmania donovani 9515 (MHOM/IN/95/9151) amastigote infected in THP-1 cells incubated for 72 hrs by resazurin dye based plate reader assay; assay type: functional, organism-based; details: THP-1, 72 h
[8] = Selectivity index, ratio of CC50 for MDBK to IC50 for Trypanosoma brucei gambiense IL1922; assay type: toxicity, cell-based; details: cattle, MDBK cells; read-out: Ratio CC50/IC50
[9] = test system: Trypanosoma evansi; experiment: Trypanocidal activity against Trypanosoma evansi Tansui incubated for 72 hrs by CellTiter-Glo reagent based […] analysis; assay type: functional, organism-based
[10] = Selectivity index, ratio of CC50 for MDBK to IC50 for Trypanosoma brucei rhodesiense IL1501; assay type: toxicity, cell-based; details: cattle, MDBK cells; read-out: Ratio CC50/IC50
[11] = Cytotoxicity against human […]-differentiated THP-1 cells incubated for 72 hrs by resazurin dye based assay; assay type: toxicity, cell-based
[12] = test system: Trypanosoma brucei gambiense; experiment: Trypanocidal activity against Trypanosoma brucei gambiense IL1922 incubated for 72 hrs by CellTiter-Glo reagent based […] analysis; assay type: functional, organism-based; details: IL1922, 72 h
[13] = test system: Leishmania donovani; experiment: Antileishmanial activity against Leishmania donovani 9515 (MHOM/IN/95/9151) amastigote infected in THP-1 cells assessed as inhibition of parasite growth incubated for 72 hrs by resazurin dye based plate reader assay; assay type: functional, organism-based; details: THP-1, 72 h
[14] = test system: Leishmania donovani; experiment: Antileishmanial activity against Leishmania donovani 9515 (MHOM/IN/95/9151) promastigote incubated for 48 hrs by resazurin dye based plate reader assay; assay type: functional, organism-based
[15] = Selectivity index, ratio of CC50 for MDBK to IC50 for Trypanosoma equiperdum IVM-t1; assay type: toxicity, cell-based; details: cattle, MDBK cells; read-out: Ratio CC50/IC50
[16] = test system: Trypanosoma brucei rhodesiense; experiment: Trypanocidal activity against Trypanosoma brucei rhodesiense IL1501 incubated for 72 hrs by CellTiter-Glo reagent based […] analysis; assay type: functional, organism-based; details: IL1501, 72 h
[17] = Cytotoxicity against MDBK cells incubated for 72 hrs by CCK8 assay; assay type: toxicity, cell-based, Bos taurus; details: cattle, MDBK cells
[18] = Selectivity index, ratio of CC50 for MDBK to IC50 for Trypanosoma congolense IL3000; assay type: toxicity, cell-based; details: cattle, MDBK cells; read-out: Ratio CC50/IC50
[19] = Selectivity index, ratio of IC50 for human THP-1 cells to IC50 for leishmanicidal activity against Leishmania donovani 9515 (MHOM/IN/95/9151) amastigote; assay type: toxicity, cell-based; details: read-out: Ratio IC50
[20] = Selectivity index, ratio of IC50 for african green monkey Vero cells to IC50 for Leishmania donovani 9515 (MHOM/IN/95/9151) promastigote; assay type: toxicity, cell-based; details: read-out: Ratio IC50
[21] = Selectivity index, ratio of IC50 for human THP-1 cells to IC50 for static antileishmanial activity against Leishmania donovani 9515 (MHOM/IN/95/9151) amastigote; assay type: toxicity, cell-based; details: read-out: Ratio IC50
[22] = Selectivity index, ratio of IC50 for african green monkey Vero cells to IC50 for leishmanicidal activity against Leishmania donovani 9515 (MHOM/IN/95/9151) amastigote; assay type: toxicity, cell-based; details: read-out: Ratio IC50
[23] = Selectivity index, ratio of IC50 for human THP-1 cells to IC50 for Leishmania donovani 9515 (MHOM/IN/95/9151) promastigote; assay type: toxicity, cell-based; details: read-out: Ratio IC50
[24] = Selectivity index, ratio of IC50 for african green monkey Vero cells to IC50 for static antileishmanial activity against Leishmania donovani 9515 (MHOM/IN/95/9151) amastigote; assay type: toxicity, cell-based; details: read-out: Ratio IC50

| Structure (SMILES) | IC50 [1] [µM] | IC50 [2] [µM] | IC50 [3] [µM] | IC50 at 48 h [6] [µM] | IC50 [7] [µM] | IC50 [9] [µM] | IC50 at 72 h [11] [µM] | IC50 [12] [µM] | IC50 [13] [µM] | IC50 [14] [µM] | IC50 [16] [µM] | CC50 at 72 h [17] [µM] | further results |
| --- | --- | --- | --- | --- | --- | --- | --- | --- | --- | --- | --- | --- | --- |
| C#CCn1cc(/C=N\N=C/CC)c2cc([N+](=O)[O-])ccc21 | 56.1 | 78.8 | > 88.6 | > 100 | > 10 | 55.4 | > 100 | 51.6 | > 10 | > 10 | 75.1 | > 354 | selectivity ratio [4]: > 4.49; selectivity ratio [5]: > 6.39; selectivity ratio [8]: > 6.86; selectivity ratio [10]: > 4.72; selectivity ratio [15]: > 6.3 |
| C#CCn1cc(C=O)c2cc([N+](=O)[O-])ccc21 | > 110 | > 110 | > 110 | > 100 | > 10 | > 110 | 77 | > 110 | > 10 | > 10 | > 110 | > 438 | – |
| C#CCn1cc(/C=N\N=C\c2cnc[nH]2)c2cc([N+](=O)[O-])ccc21 | > 78 | > 78 | 14.8 | 83.2 | > 10 | > 78 | 42.5 | > 78 | > 10 | > 10 | > 78 | > 312 | selectivity ratio [18]: > 21 |
| C#CCn1cc(\C=N/N=C/C(C)=C\C)c2cc([N+](=O)[O-])ccc21 | > 81.2 | > 81.2 | > 81.2 | 84.2 | 1.7 | > 81.2 | > 100 | > 81.2 | 0.32 | 10.5 | > 81.2 | > 281 | selectivity ratio [19]: > 59; selectivity ratio [20]: 8; selectivity ratio [21]: 313; selectivity ratio [22]: 50; selectivity ratio [23]: 10; selectivity ratio [24]: 226 |
| C#CCn1ccc2cc([N+](=O)[O-])ccc21 | > 125 | > 125 | > 125 | > 100 | > 10 | > 125 | > 100 | > 125 | > 10 | > 10 | > 125 | > 500 | – |
| C#CCn1cc(/C=N\N=C\c2cccn2C)c2cc([N+](=O)[O-])ccc21 | > 74.8 | > 74.8 | > 74.8 | – | > 10 | > 74.8 | – | > 74.8 | > 10 | > 10 | > 74.8 | > 299 | – |
| NCCCC(N)(C(=O)O)C(F)F (stereo unspecified) [EFLORNITHINE] | – | 38.6 | 16.1 | – | – | 57.2 | – | 36.7 | – | – | 46 | – | – |
| N=C(N)c1ccc(/N=N/Nc2ccc(C(=N)N)cc2)cc1 [DIMINAZENE DIACETURATE] | 0.011 | – | 0.109 | – | – | – | – | – | – | – | – | – | – |
| C#CCn1cc(/C=N\N=C/C2CC2)c2cc([N+](=O)[O-])ccc21 | > 84.9 | > 84.9 | > 84.9 | 88.4 | > 10 | > 84.9 | 51.8 | > 84.9 | > 10 | > 10 | > 84.9 | > 340 | – |
| O=[N+]([O-])c1ccc2[nH]ccc2c1 | – | – | – | > 100 | > 10 | – | > 100 | – | > 10 | > 10 | – | – | – |
| C#CCn1cc(/C=N\N=C\c2nccn2C)c2cc([N+](=O)[O-])ccc21 | > 75.5 | > 75.5 | 12.8 | 54.7 | > 10 | > 75.5 | 29.7 | > 75.5 | > 10 | > 10 | > 75.5 | > 302 | selectivity ratio [18]: > 23.5 |
| C#CCn1cc(/C=N\N=C\c2ccc([N+](=O)[O-])cc2)c2cc([N+](=O)[O-])ccc21 | > 66.7 | > 66.7 | 8.84 | 27.5 | 3.91 | > 66.7 | 25.7 | > 66.7 | 9.75 | > 10 | > 66.7 | > 68.2 | selectivity ratio [18]: > 30.1; selectivity ratio [19]: 7; selectivity ratio [21]: 3; selectivity ratio [22]: 7; selectivity ratio [24]: 3 |
| C#CCn1cc(/C=N\N=C\c2ccncc2)c2cc([N+](=O)[O-])ccc21 | > 75.5 | > 75.5 | > 75.5 | > 100 | > 10 | > 75.5 | 66.4 | > 75.5 | > 10 | > 10 | > 75.5 | 267 | – |
| C#CCn1cc(/C=N\N=C\c2ccccn2)c2cc([N+](=O)[O-])ccc21 | > 75.5 | > 75.5 | > 75.5 | > 100 | 3.35 | > 75.5 | > 100 | > 75.5 | 1.59 | > 10 | > 75.5 | > 121 | selectivity ratio [19]: > 30; selectivity ratio [21]: 63; selectivity ratio [22]: > 30; selectivity ratio [24]: > 63 |
| Cc1ccc(C(=O)Nc2ccc(S(=O)(=O)O)c3cc(S(=O)(=O)O)cc(S(=O)(=O)O)c23)cc1NC(=O)c1cccc(NC(=O)Nc2cccc(C(=O)Nc3cc(C(=O)Nc4ccc(S(=O)(=O)O)c5cc(S(=O)(=O)O)cc(S(=O)(=O)O)c45)ccc3C)c2)c1 [SURAMIN] | 0.038 | – | – | – | – | – | – | – | – | – | – | – | – |
| CC1CS(=O)(=O)CCN1/N=C/c1ccc([N+](=O)[O-])o1 (stereo unspecified) [NIFURTIMOX] | – | – | – | – | – | – | – | 4.58 | – | – | – | – | – |
| C#CCn1cc(/C=N\N)c2cc([N+](=O)[O-])ccc21 | > 103 | > 103 | > 3.2 | 96.8 | > 10 | > 103 | 61 | > 103 | > 10 | > 10 | > 103 | 341 | – |
| C#CCn1cc(/C=N\N=C\c2cccnc2)c2cc([N+](=O)[O-])ccc21 | > 75.5 | > 75.5 | > 75.5 | > 100 | 1.46 | > 75.5 | > 100 | > 75.5 | 1.32 | > 10 | > 75.5 | 111 | selectivity ratio [19]: > 68; selectivity ratio [21]: 76; selectivity ratio [22]: > 68; selectivity ratio [24]: > 76 |
| C#CCn1cc(/C=N\N=C\C2CCCCC2)c2cc([N+](=O)[O-])ccc21 | 21.8 | 18.6 | > 74.3 | > 100 | > 10 | > 74.3 | 52.9 | 16.1 | 2.85 | > 10 | 19.4 | > 297 | selectivity ratio [4]: > 16; selectivity ratio [8]: > 18.4; selectivity ratio [21]: 19; selectivity ratio [10]: > 15.3; selectivity ratio [15]: > 13.7; selectivity ratio [24]: > 35 |
| C#CCn1cc(/C=N\N=C/C)c2cc([N+](=O)[O-])ccc21 | > 93.2 | > 93.2 | > 93.2 | 89 | > 10 | > 93.2 | 59.3 | > 93.2 | > 10 | > 10 | > 93.2 | > 373 | – |
| N=C(N)c1ccc(OCCCCCOc2ccc(C(=N)N)cc2)cc1 [PENTAMIDINE] | 0.001 | – | 0.33 | – | – | 0.001 | – | 0.014 | – | – | – | – | – |
| C#CCn1cc(/C=N\N=C/CCC)c2cc([N+](=O)[O-])ccc21 | > 84.4 | > 84.4 | > 84.4 | > 100 | > 10 | > 84.4 | 43.9 | > 84.4 | > 10 | > 10 | 48.5 | > 338 | selectivity ratio [10]: > 6.96 |
